Reference: patent US9096646B2, “CXCR4 receptor compounds” (priority 2008, dated 2015)
Where two headings read alike, the source gives them in different places. Square brackets hold non-standard residues; d marks the D form. Peptide text beside a SMILES is read from it. * marks the point of attachment. ξ: configuration not given here. Palmitoyl = CCCCCCCCCCCCCCCC(=O)*; ξF = NC(Cc1ccccc1)C(=O)O

Columns and labels:
Assay type in all cases: cell-based
[1] = target: T1, CXCR4 (Homo sapiens, UniProt P61073); experiment: Chemotaxis assay using SUP B-15 cells; set-up: A similar procedure was followed for chemotaxis using SUP B-15 cells; endogenous in cells; host or cells: SUP B-15 cells; details: SUP-B15, Table 18, i1 loop, SUP B-15 cells, drug conc 1.0 uM
T1 sequence (P61073 whole entry): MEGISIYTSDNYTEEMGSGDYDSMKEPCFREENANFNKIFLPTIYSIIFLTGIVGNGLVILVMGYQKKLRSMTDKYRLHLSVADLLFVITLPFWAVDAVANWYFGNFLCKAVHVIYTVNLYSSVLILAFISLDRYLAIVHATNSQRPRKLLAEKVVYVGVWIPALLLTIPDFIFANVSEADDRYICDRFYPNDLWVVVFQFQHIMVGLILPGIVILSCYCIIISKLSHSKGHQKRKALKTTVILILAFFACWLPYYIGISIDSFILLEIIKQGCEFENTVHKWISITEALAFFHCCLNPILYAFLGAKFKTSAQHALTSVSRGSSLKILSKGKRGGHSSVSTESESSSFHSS
Text: Chemotaxis assays were utilized to determine the effect of compound on the directed migration of cells in response to chemokine. Cells that express a receptor of interest were placed in the upper chamber of a Transwell chemotaxis plate (Corning) and allowed to migrate through a polycarbonate membrane to a lower chamber containing the appropriate receptor-specific ligand. To test for antagonist or potentiating activity, cells were mixed with the desired concentration of compound prior to addition to the upper chamber. Conversely, agonist activity was determined by adding compound in the bottom chamber only without endogenous chemokine. The effect of compound is quantified by several parameters, including the extent of maximum response, the shift of agonist dose-response curves, and the area under the curve.
To measure the CXCR4-dependent migration of cells, the appropriate concentration of CXCL12 (SDF1a) or test compound was diluted in phenol red-free RMPI-1640/20 mM HEPES/0.5% BSA buffer and placed in the bottom chamber of a transwell apparatus. CCRF-CEM cells, a human T-cell ALL line that endogenously expresses CXCR4, were washed twice in buffer and resuspended at 133,000 cells/ml. A 75 μl sample of this suspension is mixed with the test compound of interest and placed in the upper chamber of a 5-micron transwell apparatus.
To initiate cell migration, the assembled transwell plate was placed in a 37° C., […] incubator for a specified time interval, typically between 30 and 120 minutes. After incubation, the unit was disassembled and the lower chamber placed at −80° C. overnight to facilitate lysis of cells. To quantify migrated cells, plates were thawed at 37° C. in a humidified chamber, and then a sample volume was removed from each well and mixed with an equal volume of CyQuant (Invitrogen) working solution in opaque plates. The fluorescence intensity of each well represents the DNA content and is directly proportional to cell number. Each sample was typically run in duplicate or triplicate and each plate included two separate negative controls. The plate background control, which included no cells in the upper chamber, was subtracted from all values. The negative control had no agonist added in the lower chamber, and served to establish the baseline for random migration. A similar procedure was followed for chemotaxis using SUP B-15 cells.

[2] = target: T1, CXCR4; experiment: Chemotaxis assay, effect on SDF1-a (CXCL12) induced migration of CCRF-CEM cells; set-up: a human T-cell ALL line that endogenously expresses CXCR4; endogenous in cells; host or cells: CCRF-CEM (human T-cell ALL line); details: CCRF-CEM, Table 18, i1 loop, CEM cells; for activity at 1 µM: drug conc 1.0 uM; for activity at 0.03 µM: drug conc 0.03 uM; for activity at 0.1 µM: drug conc 0.1 uM; for activity at 0.3 µM: drug conc 0.3 uM; for activity at 3 µM: drug conc 3.0 uM
Description: To initiate cell migration, the assembled transwell plate was placed in a 37° C., 0.5% CO2 incubator for a specified time interval, typically between 30 and 120 minutes. After incubation, the unit was disassembled and the lower chamber placed at −80° C. overnight to facilitate lysis of cells. To quantify migrated cells, plates were thawed at 37° C. in a humidified chamber, and then a sample volume was removed from each well and mixed with an equal volume of CyQuant (Invitrogen) working solution in opaque plates. The fluorescence intensity of each well represents the DNA content and is directly proportional to cell number. […] The plate background control, which included no cells in the upper chamber, was subtracted from all values.

[3] = target: T1, CXCR4; experiment: Calcium flux assay in CCRF-CEM cells (SDF-1α activation of CXCR4; intrinsic agonist activity); set-up: a human T-cell ALL line that endogenously expresses CXCR4; endogenous in cells; host or cells: CCRF-CEM (human T-cell ALL line); details: SDF-1α activation of CXCR4, Calcium-4 dye, read-out: IC50 (nM), CXCR4 i1 loop compound Calcium Flux Data
Text: Calcium Flux Assay is one of the most popular cell-based GPCR functional assays. It most often uses calcium sensing fluorescent dyes such as fura2 AM, fluo-4 and Calcium-4 to measure changes in intracellular calcium concentration. It is used mainly to detect GPCR signaling via Gaq subunit. Activation of these Gq-coupled GPCRs leads to activation of phospholipase C, which subsequently leads to increase in inositol phosphate production. IP3 receptors on endoplasmic reticulum sense the change then release calcium into cytoplasm. Intracellular calcium binding to the fluorescent dyes can be detected by instruments that quantify fluorescent intensities, such as FLIPR Tetra, Flexstation (MDS) and FDSS (Hamamatsu). In additional to assess Gq-couple receptor signaling, calcium flux assay can also be used to study Gs and Gi couple receptors by co-expressing CNG (cyclic nucleotide gated calcium channel) or chimeric G-proteins (Gqi5, Gsi5 for example). Activation of some Gi-coupled receptors can also be detected by calcium flux assay via Gβγmediated phospholipase C activation.
The calcium flux assay was used to assess SDF-1α activation of CXCR4 in CCRF-CEM cells (human T lymphoblasts from acute lymphoblastic leukemia). CCRF-CEM cells were seeded into 96-well black plates with clear bottom at 200K/well in RPMI 1640 media with 20 mM HEPES containing 0.2% BSA. After dye loading by incubating with Calcium-4 dye at 37° C. for 1 hour, cell plates were read at 37° C. using the Flexstation 3 workstation. The addition of test compounds or reference antagonists was accomplished either by manual pipetting or by liquid handling using the Flexstation. The latter allows the assessment of intrinsic agonist activity of the test compounds by measuring initial changes in fluorescent intensity. After incubation of 24 minutes at 37° C., SDF-1α was added and receptor activation was assessed by measuring changes in fluorescent intensity using the Flexstation.

Row | SMILES | activity at 1 µM ([1]; read-out: AUC (% of)) [%] | activity at 1 µM ([1]; read-out: Max (% of)) [%] | activity at 1 µM ([2]; read-out: AUC (% of)) [%] | activity at 1 µM ([2]; read-out: Max (% of)) [%] | IC50 [3] [nM] | further results
1 | CCCCCCCCCCCCCCCC(=O)N[C@H](C(=O)N[C@@H](CCSC)C(=O)NCC(=O)N[C@@H](Cc1ccc(O)cc1)C(=O)N[C@@H](CCC(N)=O)C(=O)N[C@@H](CCCCN)C(=O)N[C@@H](CCCCN)C(=O)N[C@@H](CC(C)C)C(=O)N[C@@H](CCCNC(=N)N)C(=O)N[C@@H](CO)C(=O)N[C@@H](CCSC)C(=O)N[C@H](C(=O)N[C@@H](CC(=O)O)C(N)=O)[C@@H](C)O)C(C)C [Compound 35] (Palmitoyl-VMGYQKKLRSMTD-NH2) | 31.7 | 49.3 | 57.9 | 57 | – | –
2 | CCCCCCCCCCCCCCCC(=O)N[C@@H](CCSC)C(=O)NCC(=O)N[C@@H](Cc1ccc(O)cc1)C(=O)N[C@@H](CCC(N)=O)C(=O)N[C@@H](CCCCN)C(=O)N[C@@H](CCCCN)C(=O)N[C@@H](CC(C)C)C(=O)N[C@@H](CCCNC(=N)N)C(=O)N[C@@H](CO)C(=O)N[C@@H](CCSC)C(=O)N[C@H](C(=O)N[C@@H](CC(=O)O)C(=O)N[C@@H](CCCCN)C(=O)N[C@@H](Cc1ccc(O)cc1)C(N)=O)[C@@H](C)O [Compound 37] (Palmitoyl-MGYQKKLRSMTDKY-NH2) | 63.5 | 91.1 | 92.3 | 97.8 | – | –
3 | CCCCCCCCCCCCCCCC(=O)N[C@@H](CCCCN)C(=O)N[C@@H](CCCCN)C(=O)N[C@@H](CC(C)C)C(=O)N[C@@H](CCCNC(=N)N)C(=O)N[C@@H](CO)C(=O)N[C@@H](CCSC)C(=O)N[C@H](C(=O)N[C@@H](CC(=O)O)C(=O)N[C@@H](CCCCN)C(=O)N[C@@H](Cc1ccc(O)cc1)C(=O)N[C@@H](CCCNC(=N)N)C(=O)N[C@@H](CC(C)C)C(=O)N[C@@H](Cc1cnc[nH]1)C(=O)N[C@@H](CC(C)C)C(=O)N[C@@H](CO)C(=O)N[C@H](C(N)=O)C(C)C)[C@@H](C)O [Compound 41] (Palmitoyl-KKLRSMTDKYRLHLSV-NH2) | 51.7 | 41.7 | 66.7 | 76.8 | – | –
4 | CCCCCCCCCCCCCCCC(=O)N[C@@H](CCCCN)C(=O)N[C@@H](CCCCN)C(=O)N[C@@H](CC(C)C)C(=O)N[C@@H](CCCNC(=N)N)C(=O)N[C@@H](CO)C(=O)N[C@@H](CCSC)C(=O)N[C@H](C(=O)N[C@@H](CC(=O)O)C(=O)N[C@@H](CCCCN)C(=O)N[C@@H](Cc1ccc(O)cc1)C(=O)N[C@@H](CCCNC(=N)N)C(=O)N[C@@H](CC(C)C)C(=O)N[C@@H](Cc1cnc[nH]1)C(N)=O)[C@@H](C)O [Compound 43] (Palmitoyl-KKLRSMTDKYRLH-NH2) | 70.8 | 55.8 | – | 78.9 | – | activity at 0.01 µM ([2]; drug conc 0.01 uM, read-out: AUC (% of)): 110%; activity at 0.03 µM ([2]; read-out: AUC (% of)): 110%; activity at 0.03 µM ([2]; read-out: Max (% of)): 92.7%; activity at 0.1 µM ([2]; read-out: AUC (% of)): 108%; activity at 0.1 µM ([2]; read-out: Max (% of)): 93.6%; activity at 0.3 µM ([2]; read-out: AUC (% of)): 97.9%; activity at 0.3 µM ([2]; read-out: Max (% of)): 84.5%; activity at 3 µM ([2]; read-out: AUC (% of)): 79.4%; activity at 3 µM ([2]; read-out: Max (% of)): 76.3%
5 | CCCCCCCCCCCCCCCC(=O)N[C@@H](CCCCN)C(=O)N[C@@H](CCCCN)C(=O)N[C@@H](CC(C)C)C(=O)N[C@@H](CCCNC(=N)N)C(=O)N[C@@H](CO)C(=O)N[C@@H](CCSC)C(=O)N[C@H](C(=O)N[C@@H](CC(=O)O)C(=O)N[C@@H](CCCCN)C(=O)N[C@@H](Cc1ccc(O)cc1)C(=O)N[C@@H](CCCNC(=N)N)C(N)=O)[C@@H](C)O [Compound 45] (Palmitoyl-KKLRSMTDKYR-NH2) | 178 | 194 | – | – | – | –
6 | CCCCCCCCCCCCCCCC(=O)N[C@@H](CCCCN)C(=O)N[C@@H](CCCCN)C(=O)N[C@@H](CC(C)C)C(=O)N[C@@H](CCCNC(=N)N)C(=O)N[C@@H](CO)C(=O)N[C@@H](CCSC)C(=O)N[C@H](C(=O)N[C@@H](CC(=O)O)C(=O)N[C@@H](CCCCN)C(=O)N[C@@H](Cc1ccc(O)cc1)C(N)=O)[C@@H](C)O [Compound 46] (Palmitoyl-KKLRSMTDKY-NH2) | 87.2 | 82.9 | 69.7 | 116 | – | –
7 | CCCCCCCCCCCCCCCC(=O)N[C@@H](CCSC)C(=O)NCC(=O)N[C@@H](Cc1ccc(O)cc1)C(=O)N[C@@H](CCC(N)=O)C(=O)N[C@H](CCCCN)C(=O)N[C@@H](CCCCN)C(=O)N[C@@H](CC(C)C)C(=O)N[C@@H](CCCNC(=N)N)C(=O)N[C@@H](CO)C(=O)N[C@@H](CCSC)C(=O)N[C@H](C(=O)N[C@@H](CC(=O)O)C(=O)N[C@@H](CCCCN)C(=O)N[C@@H](C)C(=O)N[C@@H](CCCNC(=N)N)C(=O)N[C@@H](CC(C)C)C(N)=O)[C@@H](C)O [Compound 151] (Palmitoyl-MGYQ[dK]KLRSMTDKARL-NH2) | – | – | – | – | > 10000 | –
8 | CCCCCCCCCCCCCCCC(=O)N[C@@H](CCSC)C(=O)NCC(=O)N[C@@H](Cc1ccc(O)cc1)C(=O)N[C@@H](CCC(N)=O)C(=O)N[C@H](CCCCN)C(=O)N[C@@H](CCCCN)C(=O)N[C@@H](CC(C)C)C(=O)N[C@@H](CCCNC(=N)N)C(=O)N[C@@H](CO)C(=O)N[C@@H](CCSC)C(=O)N[C@H](C(=O)N[C@@H](CC(=O)O)C(=O)N[C@@H](CCCCN)C(=O)N[C@@H](Cc1ccc(O)cc1)C(=O)N[C@@H](C)C(=O)N[C@@H](CC(C)C)C(N)=O)[C@@H](C)O [Compound 152] (Palmitoyl-MGYQ[dK]KLRSMTDKYAL-NH2) | – | – | – | – | > 10000 | –
9 | CCCCCCCCCCCCCCCC(=O)N[C@@H](CCSC)C(=O)NCC(=O)N[C@@H](Cc1ccc(O)cc1)C(=O)N[C@@H](CCC(N)=O)C(=O)N[C@H](CCCCN)C(=O)N[C@@H](CCCCN)C(=O)N[C@@H](CC(C)C)C(=O)N[C@@H](CCCNC(=N)N)C(=O)N[C@@H](CO)C(=O)N[C@@H](CCSC)C(=O)N[C@H](C(=O)N[C@@H](CC(=O)O)C(=O)N[C@@H](CCCCN)C(=O)NC(Cc1ccccc1)C(=O)N[C@@H](CCCNC(=N)N)C(=O)N[C@@H](C)C(N)=O)[C@@H](C)O (stereo partly drawn) [Compound 153] (Palmitoyl-MGYQ[dK]KLRSMTDK[ξF]RA-NH2) | – | – | – | – | > 10000 | –
